{"source": "the NIST ThermoML archive (doi:10.1016/j.jct.2011.01.008)", "key": {"[1]": {"conditions": "Liquid; for mass density: 96 kPa, Vibrating tube method; for vapor or sublimation pressure: Index of refraction calibration data"}, "[2]": {"experiment": "refractive index (Na D-line) (dimensionless); xn = mol fraction of the nth substance listed", "conditions": "298.15 K; 96 kPa; Liquid; Standard Abbe refractometry; x2 = 0"}, "[3]": {"experiment": "xn = mol fraction of the nth substance listed", "conditions": "96 kPa, Liquid, Vibrating tube method, x2 = 0"}}, "note": "± gives the expanded uncertainty stated by the source.", "data": [{"compound": "CCOS(=O)(=O)[O-].CCn1cc[n+](C)c1", "note": "[1-ethyl-3-methylimidazolium ethyl sulfate]", "values": [{"measurement": "mass density", "setting": "[1]; 288.16 K", "value": "1243.72 ± 3", "unit": "kg/m3"}, {"measurement": "mass density", "setting": "[1]; 293.16 K", "value": "1239.95 ± 3", "unit": "kg/m3"}, {"measurement": "mass density", "setting": "[1]; 298.14 K", "value": "1236.86 ± 3", "unit": "kg/m3"}, {"measurement": "mass density", "setting": "[1]; 298.15 K", "value": "1236.86 ± 3", "unit": "kg/m3"}, {"measurement": "mass density", "setting": "[1]; 303.14 K", "value": "1233.58 ± 2.9", "unit": "kg/m3"}, {"measurement": "mass density", "setting": "[1]; 308.15 K", "value": "1229.9 ± 2.9", "unit": "kg/m3"}, {"measurement": "mass density", "setting": "[1]; 313.15 K", "value": "1226.73 ± 2.9", "unit": "kg/m3"}, {"measurement": "mass density", "setting": "[1]; 318.16 K", "value": "1223.17 ± 2.9", "unit": "kg/m3"}, {"measurement": "mass density", "setting": "[1]; 323.15 K", "value": "1219.99 ± 2.9", "unit": "kg/m3"}]}, {"compound": "CCOS(=O)(=O)[O-].CCn1cc[n+](C)c1", "note": "[1-ethyl-3-methylimidazolium ethyl sulfate] + CCC=O", "values": [{"measurement": "refractive index", "setting": "[2]", "value": "1.4817 ± 0.0008"}, {"measurement": "mass density", "setting": "[3]; 288.16 K", "value": "1243.72 ± 3", "unit": "kg/m3"}, {"measurement": "mass density", "setting": "[3]; 293.16 K", "value": "1239.95 ± 3", "unit": "kg/m3"}, {"measurement": "mass density", "setting": "[3]; 298.14 K", "value": "1236.86 ± 3", "unit": "kg/m3"}, {"measurement": "mass density", "setting": "[3]; 303.14 K", "value": "1233.58 ± 2.9", "unit": "kg/m3"}, {"measurement": "mass density", "setting": "[3]; 308.15 K", "value": "1229.9 ± 2.9", "unit": "kg/m3"}, {"measurement": "mass density", "setting": "[3]; 313.15 K", "value": "1226.73 ± 2.9", "unit": "kg/m3"}]}, {"compound": "CCOS(=O)(=O)[O-].CCn1cc[n+](C)c1", "note": "[1-ethyl-3-methylimidazolium ethyl sulfate] + CCCCC=O", "values": [{"measurement": "refractive index", "setting": "[2]", "value": "1.4817 ± 0.0008"}, {"measurement": "mass density", "setting": "[3]; 288.16 K", "value": "1243.72 ± 3", "unit": "kg/m3"}, {"measurement": "mass density", "setting": "[3]; 293.16 K", "value": "1239.95 ± 3", "unit": "kg/m3"}, {"measurement": "mass density", "setting": "[3]; 298.14 K", "value": "1236.86 ± 3", "unit": "kg/m3"}, {"measurement": "mass density", "setting": "[3]; 303.14 K", "value": "1233.58 ± 2.9", "unit": "kg/m3"}, {"measurement": "mass density", "setting": "[3]; 308.15 K", "value": "1229.9 ± 2.9", "unit": "kg/m3"}, {"measurement": "mass density", "setting": "[3]; 313.15 K", "value": "1226.73 ± 2.9", "unit": "kg/m3"}, {"measurement": "mass density", "setting": "[3]; 318.16 K", "value": "1223.17 ± 2.9", "unit": "kg/m3"}, {"measurement": "mass density", "setting": "[3]; 323.15 K", "value": "1219.99 ± 2.9", "unit": "kg/m3"}]}, {"compound": "CCCCC=O", "note": "[pentanal]", "values": [{"measurement": "mass density", "setting": "[1]; 288.15 K", "value": "814.15 ± 0.24", "unit": "kg/m3"}, {"measurement": "mass density", "setting": "[1]; 293.14 K", "value": "809.45 ± 0.24", "unit": "kg/m3"}, {"measurement": "mass density", "setting": "[1]; 298.14 K", "value": "804.73 ± 0.24", "unit": "kg/m3"}, {"measurement": "mass density", "setting": "[1]; 298.15 K", "value": "804.73 ± 0.24", "unit": "kg/m3"}, {"measurement": "mass density", "setting": "[1]; 303.15 K", "value": "799.97 ± 0.24", "unit": "kg/m3"}, {"measurement": "mass density", "setting": "[1]; 308.15 K", "value": "795.17 ± 0.24", "unit": "kg/m3"}, {"measurement": "mass density", "setting": "[1]; 313.14 K", "value": "790.33 ± 0.24", "unit": "kg/m3"}, {"measurement": "mass density", "setting": "[1]; 318.14 K", "value": "785.46 ± 0.24", "unit": "kg/m3"}, {"measurement": "mass density", "setting": "[1]; 323.14 K", "value": "780.55 ± 0.24", "unit": "kg/m3"}, {"measurement": "vapor or sublimation pressure", "setting": "[1]; 376.2 K", "value": "101.3 ± 1", "unit": "kPa"}]}, {"compound": "CCC=O", "note": "[propanal]", "values": [{"measurement": "mass density", "setting": "[1]; 288.14 K", "value": "807.26 ± 0.24", "unit": "kg/m3"}, {"measurement": "mass density", "setting": "[1]; 293.15 K", "value": "801.06 ± 0.24", "unit": "kg/m3"}, {"measurement": "mass density", "setting": "[1]; 298.15 K", "value": "794.85 ± 0.24", "unit": "kg/m3"}, {"measurement": "mass density", "setting": "[1]; 303.15 K", "value": "788.72 ± 0.24", "unit": "kg/m3"}, {"measurement": "mass density", "setting": "[1]; 308.16 K", "value": "782.55 ± 0.24", "unit": "kg/m3"}, {"measurement": "mass density", "setting": "[1]; 313.15 K", "value": "776.53 ± 0.24", "unit": "kg/m3"}, {"measurement": "vapor or sublimation pressure", "setting": "[1]; 321.2 K", "value": 101.3, "unit": "kPa"}]}]}
